Reference: patent US20240390295A1, “METHODS FOR TREATING DEPRESSION” (JANSSEN PHARMACEUTICA NV, priority 2020, published 2024)
Values joined by “and” are separate entries in the source; they are usually repeats but may differ in a detail not shown here. Identical values can stand only once.

Tested on: adult patients (aged 18-64 years) with TRD
Experiment: Clinician-reported adverse events: incidence and recurrence by Week 1/Week 4 frequency, pooled studies 1 and 2 (ESK + OAD)
Type: in vivo, human
From the text: Data were pooled from adult patients (aged 18-64 years) with TRD. Patients had recurrent or single-episode (>2 years) MDD (DSM-5), a Clinician-Rated Inventory of Depressive Symptomatology score of >3 and a total Montgomery-Åsberg Depression Rating Scale (MADRS) score of >2. At screening, depressive symptoms had been non-responsive to adequate trials of ≥1 and ≤5 commercially available OAD in the current depressive episode. Non response was further confirmed by a prospective trial of a different OAD lasting ≥4 weeks and during the screening phase.
In brief, study 1 was a double-blind, placebo-controlled relapse prevention trial comparing the efficacy of ESK versus placebo nasal spray, both in conjunction with a Food and Drug Administration (FDA)-approved OAD, in delaying relapse of depressive symptoms in patients with TRD who were either in stable remission or stable response after four months' treatment with ESK in conjunction with a FDA-approved OAD. Study 2 was an open-label, multicenter study that assessed the long-term safety and efficacy of ESK in conjunction with an FDA-approved OAD in patients with TRD.
The analysis was limited to the two doses of ESK (56 mg and 84 mg) approved for use by the FDA for patients with TRD. Patients received ESK (56 or 84 mg) in conjunction with an OAD twice weekly during the induction phase (Weeks 1-4); once weekly during Weeks 5-8 of the optimization phase: either once weekly or every other week during the remainder of the 12-week optimization phase and the maintenance phase (individualized according to the severity of depressive symptoms [MADRS total score≤/>12] and tolerability).
Patients were monitored for >90 minutes after ESK administration at each treatment session, after which time they could leave the clinical site at the clinician's discretion. AEs were monitored and reported, and safety assessments, including clinical laboratory tests and physical examinations, were conducted throughout the study. Clinician-reported AEs were categorized as mild, moderate, or severe based on clinical judgement (Table 1).
This analysis included any treatment sessions in which patients received ESK (either open-label or blinded). The occurrence and severity of AEs were assessed within the following timeframes: Month 1 (Week 1 and Weeks 2-4), Month 2 (Weeks 5-8), Months 3-6 and Months 6-12. Severity of clinician-reported AEs were scored as 0 (no AE), 1 (mild), 2 (moderate), and 3 (severe). To examine AEs in individual patients over time, only patients who received at least one ESK dose in the following period were included in the analyses of each respective period. Thus, patient data were retained in (i) Week 1 if the patient received ≥1 ESK dose in Weeks 2-4, (ii) Weeks 2-4 if the patient received ≥1 ESK dose in Weeks 5-8, (iii) Weeks 5-8 if the patient received ≥1 ESK dose in Months 3-6, and (iv) Months 3-6 if the patient received ≥1 ESK dose in Months 6-12.
The five most commonly reported treatment-emergent events occurring with ESK plus OAD therapy (dissociation, dizziness, nausea, sedation, and vertigo) were evaluated, each of which has an incidence ≥5% and at least a 2-fold greater incidence than with placebo plus an OAD. 14 Increases in BP were also examined.
Week 1 and Week 4 were set a priori as index weeks because they are the beginning and end of the induction period. Frequencies and maximum-reported severities of AEs reported during these index weeks served as stratifying variables by which to examine recurrence and severities of AE recurrences in future timeframes.

[1] = Months 3-6, overall rate for timeframe
[2] = Months 6-12, AE twice in Week 1
[3] = Months 6-12, overall rate for timeframe
[4] = Week 1, overall rate for timeframe
[5] = Weeks 2-4, overall rate for timeframe
[6] = Weeks 5-8, overall rate for timeframe
[7] = human, in vivo, other: nasal spray, 1 week

## CN[C@]1(c2ccccc2Cl)CCCCC1=O [esketamine, (S)-2-(2-chlorophenyl)-2-(methylamino)cyclohexanone]
8 participants who had vomiting twice during week 1
  vomiting during later periods: none experienced vomiting during later periods
AE not reported in week 1
  participants experiencing an AE after any subsequent treatment session: < 10%
Months 3-6, AE once in Week 1
  Clinician-reported dissociation: 26.2%
  Clinician-reported increased blood pressure: 36.4%
  Clinician-reported sedation: 0%
  Dizziness: 31.2%
  Nausea: 20.8%
  Vertigo: 28.6%
Months 3-6, AE twice in Week 1
  Clinician-reported dissociation: 61.1%
  Clinician-reported increased blood pressure: 40.0%
  Clinician-reported sedation: 36.4%
  Dizziness: 53.0%
  Nausea: 33.3%
  Vertigo: 59.5%
Months 3-6, No AE in Week 1
  Clinician-reported dissociation: 7.6%
  Clinician-reported increased blood pressure: 3.0%
  Clinician-reported sedation: 3.0%
  Dizziness: 7.5%
  Nausea: 4.5%
  Vertigo: 3.4%
Months 3-6, None in Week 1
  Anxiety: 1.2%
  Feeling Drunk: 0.2%
  Hypoesthesia: 2.5%
  Lethargy: 0.2%
  Vomiting: 1.9%
Months 3-6, Once in Week 1
  Anxiety: 10.0%
  Feeling Drunk: 16.7%
  Hypoesthesia: 20.7%
  Lethargy: 40.0%
  Vomiting: 21.1%
Months 3-6, Overall
  Anxiety: 1.5%
  Feeling Drunk: 1.5%
  Hypoesthesia: 5.2%
  Lethargy: 0.5%
  Vomiting: 2.5%
Months 3-6, Twice in Week 1
  Anxiety: 50.0%
  Feeling Drunk: 100.0%
  Hypoesthesia: 73.3%
  Lethargy: 0%
  Vomiting: 0%
[1]
  Clinician-reported dissociation: 14.4%
  Clinician-reported increased blood pressure: 4.2%
  Clinician-reported sedation: 3.5%
  Dizziness: 15.6%
  Nausea: 7.2%
  Vertigo: 8.2%
Months 6-12, AE once in Week 1
  Clinician-reported dissociation: 18.5%
  Clinician-reported increased blood pressure: 9.1%
  Clinician-reported sedation: 0%
  Dizziness: 20.8%
  Nausea: 18.2%
  Vertigo: 23.8%
[2]
  Clinician-reported dissociation: 33.3%
  Clinician-reported increased blood pressure: 20.0%
  Clinician-reported sedation: 45.5%
  Dizziness: 21.2%
  Nausea: 8.3%
  Vertigo: 38.1%
Months 6-12, No AE in Week 1
  Clinician-reported dissociation: 4.6%
  Clinician-reported increased blood pressure: 1.7%
  Clinician-reported sedation: 1.7%
  Dizziness: 4.0%
  Nausea: 4.9%
  Vertigo: 1.7%
Months 6-12, None in Week 1
  Anxiety: 2.1%
  Feeling Drunk: 0.2%
  Hypoesthesia: 1.6%
  Lethargy: 1.6%
  Vomiting: 1.9%
Months 6-12, Once in Week 1
  Anxiety: 0%
  Feeling Drunk: 33.3%
  Hypoesthesia: 13.8%
  Lethargy: 0%
  Vomiting: 10.5%
Months 6-12, Overall
  Anxiety: 2.2%
  Feeling Drunk: 1.5%
  Hypoesthesia: 3.2%
  Lethargy: 0.2%
  Vomiting: 2.2%
Months 6-12, Twice in Week 1
  Anxiety: 50.0%
  Feeling Drunk: 85.7%
  Hypoesthesia: 40.0%
  Lethargy: 0%
  Vomiting: 0%
[3]
  Clinician-reported dissociation: 8.8%
  Clinician-reported increased blood pressure: 2.2%
  Clinician-reported sedation: 2.5%
  Dizziness: 8.1%
  Nausea: 6.7%
  Vertigo: 5.0%
[4]
  Clinician-reported dissociation: 17.1%
  Clinician-reported increased blood pressure: 4.4%
  Clinician-reported sedation: 3.9%
  Dizziness: 21.1%
  Nausea: 14.3%
  Vertigo: 12.4%
Weeks 2-4, AE once in Week 1
  Clinician-reported dissociation: 48.2%
  Clinician-reported increased blood pressure: 56.5%
  Clinician-reported sedation: 36.8%
  Dizziness: 51.9%
  Nausea: 28.6%
  Vertigo: 67.4%
Weeks 2-4, AE twice in Week 1
  Clinician-reported dissociation: 86.5%
  Clinician-reported increased blood pressure: 77.8%
  Clinician-reported sedation: 70.6%
  Dizziness: 86.4%
  Nausea: 61.9%
  Vertigo: 90.3%
Weeks 2-4, No AE in Week 1
  Clinician-reported dissociation: 5.6% and 5.7%
  Clinician-reported increased blood pressure: 2.4%
  Clinician-reported sedation: 2.1%
  Dizziness: 6.3%
  Nausea: 5.3%
  Vertigo: 5.5%
Weeks 2-4, None in Week 1
  Anxiety: 1.3%
  Feeling Drunk: 0.4%
  Hypoesthesia: 3.7%
  Lethargy: 1.0%
  Vomiting: 2.4%
Weeks 2-4, Once in Week 1
  Anxiety: 11.8%
  Feeling Drunk: 30.8%
  Hypoesthesia: 54.3%
  Lethargy: 71.4%
  Vomiting: 31.0%
Weeks 2-4, Overall
  Anxiety: 1.7%
  Feeling Drunk: 1.9%
  Hypoesthesia: 7.2%
  Lethargy: 1.5%
  Vomiting: 3.3%
Weeks 2-4, Twice in Week 1
  Anxiety: 100%
  Feeling Drunk: 90.9%
  Hypoesthesia: 76.2%
  Lethargy: 0%
  Vomiting: 0%
[5]
  Clinician-reported dissociation: 16.1%
  Clinician-reported increased blood pressure: 5.2%
  Clinician-reported sedation: 4.1%
  Dizziness: 19.2%
  Nausea: 9.4%
  Vertigo: 15.0%
Weeks 5-8, AE once in Week 1
  Clinician-reported dissociation: 29.8%
  Clinician-reported increased blood pressure: 40.9%
  Clinician-reported sedation: 22.2%
  Dizziness: 30.8%
  Nausea: 16.1%
  Vertigo: 45.2%
Weeks 5-8, AE twice in Week 1
  Clinician-reported dissociation: 60.0%
  Clinician-reported increased blood pressure: 55.6%
  Clinician-reported sedation: 52.9%
  Dizziness: 62.5%
  Nausea: 30.0%
  Vertigo: 67.6%
Weeks 5-8, No AE in Week 1
  Clinician-reported dissociation: 6.1%
  Clinician-reported increased blood pressure: 1.9%
  Clinician-reported sedation: 1.2%
  Dizziness: 3.7%
  Nausea: 1.7%
  Vertigo: 3.0%
Weeks 5-8, None in Week 1
  Anxiety: 0.8%
  Feeling Drunk: 0.1%
  Hypoesthesia: 1.6%
  Lethargy: 1.1%
  Vomiting: 1.5%
Weeks 5-8, Once in Week 1
  Anxiety: 5.9%
  Feeling Drunk: 16.7%
  Hypoesthesia: 20.7%
  Lethargy: 40.0%
  Vomiting: 21.1%
Weeks 5-8, Overall
  Anxiety: 1.0%
  Feeling Drunk: 1.6%
  Hypoesthesia: 3.4%
  Lethargy: 1.2%
  Vomiting: 1.8%
Weeks 5-8, Twice in Week 1
  Anxiety: 50.0%
  Feeling Drunk: 90.9%
  Hypoesthesia: 58.3%
  Lethargy: 0%
  Vomiting: 0%
[6]
  Clinician-reported dissociation: 12.6%
  Clinician-reported increased blood pressure: 3.9%
  Clinician-reported sedation: 2.6%
  Dizziness: 12.5%
  Nausea: 4.0%
  Vertigo: 9.9%
All subsequent postdose monitoring periods, no increased blood pressure in week 1
  increased blood pressure reported: < 4%
Dissociation twice in week 1
  dissociation as an AE into months 3-6: > 50%
Dizziness not reported in week 1 (exception)
  dizziness at 3-6 months: 11.6%
[7]
  patients who did not have increased blood pressure during week 1: 95.7%
  patients who did not report dissociation during week 1: 83.2%
  patients who did not report nausea during week 1: 86.0%
Most pronounced with dissociation and dizziness
  impact of dose (56 or 84 mg modal dose) on AE recurrence: small dose effect
Remainder of induction period, no dissociation in week 1
  dissociation occurred: < 10%
Subsequent postdose monitoring periods, no nausea in week 1
  nausea reported: < 6%
